# Data: patent publication US11952388B2, “Crystal form of tri-cycle compound and application thereof” (FUJIAN AKEYLINK BIOTECHNOLOGY CO., LTD., priority 2018, dated 2024)
# Read-outs that look alike come from different tables or passages of the source.
# Columns and labels:
# hepatitis B virus = experiment: In vivo drug efficacy, AAV/HBV mouse model; conditions: AAV/HBV mouse model, 15, 50, 150 mg/kg BID PO, 28 days
# Protocol: FIG. 7: The level of Hepatitis B virus DNA in plasma; broken line 1 means blank control, 10% solutol aqueous solution was administered quaque die (QD), per os (PO); broken line 2 means that WX-325 was administrated at a dose of 15 mg/kg bis in die (BID) at an interval of 8 hours, per os (PO); the broken line 3 means that WX-325 was administrated at a dose of 50 mg/kg bis in die (BID) at an interval of 8 hours, per os (PO); broken line 5 means that WX-325 was administrated at a dose of 150 mg/kg bis in die (BID) at an interval of 8 hours, per os (PO); broken line 6 means that tenofovir (TDF) of the positive compound was administrated at a dose of 15 mg/kg bis in die (BID) at an interval of 8 hours, per os (PO); LLOQ means lower limit of detection; Note: WX-325 in FIG. 7 means the compound represented by formula (I) of the present invention. […]
# Experimental operation: The day of the first administration was designated as day 0, the day before administration was designated as day −1, the day after administration was designated as day 1, and so on. […] The content of HBV DNA, HBeAg and HBsAg were detected using the serum. […] Both drugs were administered for 28 days, and blood samples were taken on day 3, 7, 10 and 28 after administration, and the level of HBV DNA in plasma was detected by qPCR. […]
# HBV = HBV in vitro test: quantitative qPCR of HBV DNA in HepG2.2.15 cells; type: cell-based
# Protocol: The HBV DNA content in HepG2.2.15 cells was detected by Real-time quantitative qPCR, and EC50 value of compounds was used as an indicator to evaluate inhibitory effect of compounds on HBV.
# 2.1 Cell Line: HepG2.2.15 Cells
# 3.1 HepG2.2.15 cells (4×10^4 cells/well) were bedded to a 96-well plate and cultured overnight at 37° C., 5% CO2.
# 3.2 On the day 2, the compound was diluted to a total of 8 concentrations, with a 3-fold gradient dilution. Different concentrations of compounds were added to the culture wells in duplicate. The final concentration of DMSO in the culture medium was 1%. 1 μM GLS4 was used as a 100% inhibition control; 1% DMSO was used as a 0% inhibition control.
# 3.3 On the day 5, the culture medium was replaced with fresh culture medium containing the compound.
# 3.4 On the day 8, the culture medium in the culture wells was collected, and DNA was extracted with the high-throughput DNA purification kit (Qiagen-51162). Refer product manual for specific steps.
# 3.6 15 μL of reaction mixture was added to each well of a 96-well PCR plate, and then 10 μL of sample DNA or HBV DNA standard was added to each well.
# 3.7 The reaction settings for PCR are: heating at 95° C. for 10 minutes; then denaturation at 95° C. for 15 seconds, and extension at 60° C. for 1 minute, a total of 40 cycles. […]
# [1] = Pharmacokinetics of oral administration and intravenous injection in Beagle; type: in vivo, beagle dogs
# Protocol: 3. Study on the Pharmacokinetics of Oral Administration and Intravenous Injection of the Compound Represented by Formula (I) in Beagle The compound represented by formula (I) was mixed with 5% DMSO/55% polyethylene glycol 400/40% aqueous solution, vortexed and sonicated to obtain an approximately clear solution of 1 mg/mL, which was then filtered by a microporous membrane for later use. Male beagle dogs weighed about 10 kg were selected and the candidate compound solution was administered intravenously at a dose of 1 mg/kg. The compound represented by formula (I) was mixed with 10% solutol aqueous solution, vortexed and sonicated to obtain an approximately clear solution of 2 mg/mL, which was then filtered through a microporous membrane for later use. Male beagle dogs weighed about 10 kg were selected and the candidate compound solution was orally administered at a dose of 10 mg/kg. Whole blood was collected at a certain period of time to prepare plasma, drug concentration was analyzed by LC-MS/MS method, and pharmacokinetic parameters was calculated by Phoenix WinNonlin software (Pharsight, USA). Note: T1/2 means half-life; Vdss means apparent volume of distribution; Cl means clearance rate; AUC0_last means area below the drug-time curve; Tmax means peak time; Cmax means peak concentration; F % means oral bioavailability; iv means intravenous injection; PO means oral administration; mpk means mg/kg.
# [2] = male, beagle, dog, plasma, 1 mg/kg, Dogs, iv 1 mpk
# [3] = male, beagle, dog, plasma, 10 mg/kg, Dogs, po 10 mpk
structure (smiles),measurement,setting,value
Cc1cc2n(c1)S(=O)(=O)c1ccc(C(=O)NCC[C@H]3COCCO3)cc1NC2=O [compound represented by formula (I)],"in vivo efficacy, HBV DNA in plasma and liver (conclusion in words)",hepatitis B virus,good in vivo efficacy and a dose-dependent effect
same,inhibitory effect on HBV (conclusion in words),HBV,significant inhibitory effect
same,EC50,"HBV; Hepatitis B virus, HBV DNA by qPCR, read-out: 50% inhibitory concentration (EC50) value of HBV",8.16 nM
same,pharmacokinetics (conclusion in words),[1]; Beagle,good single or partial index of pharmacokinetics
same,clearance,[1]; [2],0.936 L/h/kg
same,half-life,[1]; [2],2.87 h
same,AUC(0-t),"[1]; male, beagle, dog, plasma, 1 mg/kg, Dogs, iv 1 mpk, read-out: AUC0-last",2.68 µM·h
same,Vd,"[1]; male, beagle, dog, plasma, 1 mg/kg, Dogs, iv 1 mpk, read-out: Vdss",2.95 L/kg
same,Cmax,[1]; [3],5.85 µM
same,Tmax,[1]; [3],1.67 h
same,bioavailability,[1]; [3],126%
same,AUC(0-t),"[1]; male, beagle, dog, plasma, 10 mg/kg, Dogs, po 10 mpk, read-out: AUC0-24h",33.2 µM·h
